Columns and labels:
Details in all cases: incubation time: 72 h
[1] = system: Hs578T; test: normalised viability (% of control), CellTiter-Blue; higher = more viable cells (about 100 = DMSO control)
Experimental: (§1)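 DSRT, CellTiter-Blue viability, 72 h incubation. Signal is normalised to DMSO and benzethonium chloride controls. Value is the normalised response at dose 3.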

[2] = system: MDA-MB-468; test: as above
Experimental: as §1

[3] = system: SK-BR-3; test: as above
Experimental: as §1

[4] = system: HCC1143; test: as above
Experimental: as §1

[5] = system: CAL-148; test: as above
Experimental: as §1

[6] = system: CAL-85-1; test: as above
Experimental: as §1

[7] = system: HCC1937; test: as above
Experimental: as §1

[8] = system: CAL-120; test: as above
Experimental: as §1

[9] = system: CAL-51; test: as above
Experimental: as §1

[10] = system: MDA-MB-436; test: drug sensitivity score (DSS), CellTox Green (DSS (AUC-based score)); higher = stronger drug effect (viability inhibition or cytotoxicity); extreme values may be limits of the assay
In short: (§2)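 After 72 h of incubation in 384-well plates with compound at 5 concentrations (10-fold steps, 10,000-fold range set per compound), breast cancer cell lines seeded in 20 µl suspension were read first for CellTox Green fluorescence at 485/520 nm. CellTiter-Glo luminescence was measured next, after 10 min at room temperature. Normalisation on each plate used 0.1 % DMSO and a positive kill control, and the drug sensitivity score was computed from the area under the fitted dose-response curve.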

[11] = system: MCF-10A; test: as above
In short: as §2

[12] = system: DU-4475; test: as above
In short: as §2

[13] = system: Hs578T; test: as above
In short: as §2

[14] = system: MDA-MB-468; test: as above
In short: as §2

[15] = system: HCC1599; test: as above
In short: as §2

[16] = system: MDA-MB-231; test: as above
In short: as §2

[17] = system: MDA-MB-453; test: as above
In short: as §2

[18] = system: HCC1143; test: as above
In short: as §2

[19] = system: BT-474; test: as above
In short: as §2

[20] = system: CAL-148; test: as above
In short: as §2

[21] = system: MFM-223; test: as above
In short: as §2

[22] = system: CAL-85-1; test: as above
In short: as §2

[23] = system: BT-549; test: as above
In short: as §2

[24] = system: HCC1937; test: as above
In short: as §2

[25] = system: CAL-120; test: as above
In short: as §2

[26] = system: CAL-51; test: as above
In short: as §2

[27] = system: HDQ-P1; test: as above
In short: as §2

SMILES | normalised viability ([1]; 10 nM) | normalised viability ([2]; 10 nM) | normalised viability ([3]; 10 nM) | normalised viability ([4]; 10 nM) | normalised viability ([5]; 1 nM) | normalised viability ([6]; 1 nM) | normalised viability ([7]; 10 nM) | normalised viability ([8]; 10 nM) | normalised viability ([9]; 1 nM) | drug sensitivity score [10] | drug sensitivity score [11] | drug sensitivity score [12] | drug sensitivity score [13] | drug sensitivity score [14] | drug sensitivity score [15] | drug sensitivity score [16] | drug sensitivity score [17] | drug sensitivity score [18] | drug sensitivity score [19] | drug sensitivity score [20] | drug sensitivity score [21] | drug sensitivity score [22] | drug sensitivity score [23] | drug sensitivity score [24] | drug sensitivity score [25] | drug sensitivity score [26] | drug sensitivity score [27] | normalised viability ([1]; 100 nM) | normalised viability ([2]; 100 nM) | normalised viability ([3]; 100 nM) | normalised viability ([4]; 100 nM) | normalised viability ([5]; 10 nM) | normalised viability ([6]; 10 nM) | normalised viability ([7]; 100 nM) | normalised viability ([8]; 100 nM) | normalised viability ([9]; 10 nM)
Cc1ccc(C(=O)N(CCCN)[C@@H](c2oc3cc(Cl)ccc3c(=O)c2Cc2ccccc2)C(C)C)cc1 | 19.5% | 29.1% | 18% | 46.6% | 92.5% | 98.7% | 25.2% | 31.1% | 103% | 0 | 0 | 0 | 2.03 | 0 | 0 | 0 | 0 | 0 | 0 | 0 | 0 | 0 | 0 | 0 | 0 | 0 |  |  |  |  |  |  |  |  |  | 
CO[C@H]1/C=C\C=C(/C)C(=O)NC2=CC(=O)C(NCCN(C)C)=C(C[C@@H](C)C[C@H](OC)[C@H](O)[C@@H](C)/C=C(\C)[C@@H]1OC(N)=O)C2=O [Alvespimycin] | 51.5% | 102% | 51.5% | 86.1% | 109% | 97.2% | 55.9% | 86.3% | 90% | 0 | 13 | 4.5 | 7.05 | 1.6 | 0 | 7.29 | 0.783 | 9.99 | 4.58 | 9.12 | 0 | 6.41 | 0 | 1.6 | 0.117 | 6.02 | 4.4 |  |  |  |  |  |  |  |  | 
CCC1(c2ccc(N)cc2)CCC(=O)NC1=O (stereo not given) [Aminoglutethimide] |  |  |  |  |  |  |  |  |  | 0 | 0 | 0 | 0 | 0 | 0 | 0 | 0 | 0 | 0 | 0 | 0 | 0 | 0 | 0 | 0 | 0 | 0 | 80.6% | 102% | 105% | 113% | 99.1% | 101% | 91.3% | 121% | 93.5%
COc1cc2nccc(Oc3ccc(NC(=O)C4(C(=O)Nc5ccc(F)cc5)CC4)cc3)c2cc1OC [Cabozantinib] | 91.1% | 123% | 76.2% | 81.3% | 98.6% | 91.8% | 95.4% | 80.7% | 96.9% | 0 | 0 | 0 | 0 | 0 | 0 | 0 | 0 | 0 | 0 | 0 | 0 | 0 | 0 | 0 | 0 | 0 | 0 |  |  |  |  |  |  |  |  | 
C[C@@H](Oc1cc(-c2cnn(C3CCNCC3)c2)cnc1N)c1c(Cl)ccc(F)c1Cl [Crizotinib] |  |  |  |  |  |  |  |  |  |  | 0 | 0 | 0 | 0 | 0 | 0 | 0 | 0 | 0 | 0 | 0 | 0 | 0 | 0 | 0 | 0 | 0.784 | 64.8% | 97.7% | 59.1% | 95.8% | 105% | 93.8% | 102% | 96.8% | 107%
CN(C)/N=N/c1[nH]cnc1C(N)=O [Dacarbazine] |  |  |  |  |  |  |  |  |  | 0 | 0 | 0 | 0 | 0 | 0 | 0 | 0 | 0 | 0 | 2.9 | 0 | 0 | 0 | 3.14 | 0 | 0 | 0 | 106% | 112% | 86.9% | 89.2% | 96.4% | 91.8% | 106% | 77.9% | 85.9%
Cc1ccc(-n2nc(C(C)(C)C)cc2NC(=O)Nc2ccc(OCCN3CCOCC3)c3ccccc23)cc1 [Doramapimod] |  |  |  |  |  |  |  |  |  | 2.62 | 0 | 0 | 3.19 | 0 | 0 | 0 | 0 | 0 | 0 | 0 | 0 | 0 | 0 | 0 | 0 | 0 | 0 | 78% | 98% | 69.7% | 100% | 95.3% | 91.1% | 94.7% | 87.3% | 110%
C#Cc1cccc(Nc2ncnc3cc(OCCOC)c(OCCOC)cc23)c1 [Erlotinib] |  |  |  |  |  |  |  |  |  | 0 | 0 | 0 | 0 | 0 | 0 |  | 0 | 0 | 0.507 | 0 | 0 | 6.41 | 0 | 0 | 0 | 2.1 | 0 | 85.4% | 95% | 88.7% | 92.9% | 98.8% | 95.4% | 106% | 102% | 102%
COc1cc([C@@H]2c3cc4c(cc3[C@@H](O[C@@H]3O[C@@H]5CO[C@@H](C)O[C@H]5[C@H](O)[C@H]3O)[C@H]3COC(=O)[C@H]23)OCO4)cc(OC)c1O [Etoposide] |  |  |  |  |  |  |  |  |  | 0 | 0 | 0.895 | 20.3 | 7.2 | 0 | 0 | 0 | 0 | 0 | 5.65 | 0 | 1.64 | 0 | 0 | 1.57 | 9.25 | 0 | 84.3% | 94.2% | 58.5% | 84% | 93.8% | 101% | 91.3% | 90.8% | 91.1%
CC1(C)NC(=O)N(c2ccc([N+](=O)[O-])c(C(F)(F)F)c2)C1=O [Nilutamide] |  |  |  |  |  |  |  |  |  | 0 | 0 | 0 | 0 | 0 | 0 | 0 | 0 |  | 0 | 0 | 0 | 0 | 0 | 0 | 0 | 0 | 0 | 111% | 94.2% | 95.4% | 96.2% | 95% | 105% | 99.7% | 99.4% | 101%
Cn1c(Nc2ccc(C(F)(F)F)cc2)nc2cc(Oc3ccnc(-c4ncc(C(F)(F)F)[nH]4)c3)ccc21 [RAF265] | 89.7% | 104% | 102% | 77.8% | 94% | 92% | 93.2% | 82.2% | 92.9% | 0 |  | 0 | 0 | 0 | 0 | 0 | 0 | 0 | 0 | 0 | 2.58 | 4.33 | 9.17 | 0 | 0 | 0 | 0 |  |  |  |  |  |  |  |  | 
CNCc1ccc(-c2[nH]c3cc(F)cc4c3c2CCNC4=O)cc1 [Rucaparib] |  |  |  |  |  |  |  |  |  | 0 | 0 | 0 | 1.33 | 10.6 | 0 | 0 | 0 | 0 | 0 | 0 | 0 | 0 | 0 | 0 | 0 | 0 | 0 | 75.2% | 110% | 76.4% | 110% | 83.4% | 87.6% | 85.9% | 93.3% | 114%
O=C1CCC(N2C(=O)c3ccccc3C2=O)C(=O)N1 (stereo not given) [Thalidomide] |  |  |  |  |  |  |  |  |  | 4.46 | 0 | 0 | 0 | 0 | 0 | 0 | 0 | 0 | 0 | 1.58 | 0 | 0 | 0 | 0 | 0 | 0 |  | 91.9% | 98.2% | 111% | 112% | 107% | 100% | 90.2% | 105% | 90.7%
